Experimental data as given in patent US8865623B2, “Herbicidally active cyclic diones and derivatives thereof, processes for their preparation, compositions, and method of controlling weeds” (Syngenta Limited, priority 2009, dated 2014).

Legend:
Assay type in all cases: in vivo
Avena fatua (AVEFA) [1] = test: Post-emergence herbicidal activity, glasshouse pot test; conditions: Avena fatua, 312 h, rate 250 g/ha, evaluated after 13 days, glasshouse, read-out: Post-emergence activity AVEFA (100=total damage to plant; 0=no damage to plant)
Summary of the method: (§1)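 Sow seeds in standard soil in pots; grow 1 day (pre-emergence) or 8 days (post-emergence) at 24/16° C, 14 h light, 65% humidity. Spray aqueous solution from acetone/water 50:50 + 0.5% Tween 20 formulation. Grow on, watering twice daily; score damage 0–100 after 13 days.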

[2] = system: Alopecurus myosuroides (ALOMY); test: as above; conditions: Alopecurus myosuroides, 312 h, rate 250 g/ha, evaluated after 13 days, glasshouse, read-out: Post-emergence activity ALOMY (100=total damage to plant; 0=no damage to plant)
Summary of the method: as §1

[3] = system: Echinochloa crus-galli (ECHCG); test: as above; conditions: Echinochloa crus-galli, 312 h, rate 250 g/ha, evaluated after 13 days, glasshouse, read-out: Post-emergence activity ECHCG (100=total damage to plant; 0=no damage to plant)
Summary of the method: as §1

Lolium perenne (LOLPE) [4] = test: as above; conditions: Lolium perenne, 312 h, rate 250 g/ha, evaluated after 13 days, glasshouse, read-out: Post-emergence activity LOLPE (100=total damage to plant; 0=no damage to plant)
Summary of the method: as §1

Avena fatua (AVEFA) [5] = test: Pre-emergence herbicidal activity, glasshouse pot test; conditions: Avena fatua, 312 h; Rate 250 g/ha; pre-emergence spray; evaluated after 13 days; read-out: Pre-emergence activity AVEFA (100=total damage to plant; 0=no damage to plant)
Summary of the method: as §1

[6] = system: Alopecurus myosuroides (ALOMY); test: as above; conditions: Alopecurus myosuroides, 312 h; Rate 250 g/ha; pre-emergence spray; evaluated after 13 days; read-out: Pre-emergence activity ALOMY (100=total damage to plant; 0=no damage to plant)
Summary of the method: as §1

[7] = system: Echinochloa crus-galli (ECHCG); test: as above; conditions: Echinochloa crus-galli, 312 h; Rate 250 g/ha; pre-emergence spray; evaluated after 13 days; read-out: Pre-emergence activity ECHCG (100=total damage to plant; 0=no damage to plant)
Summary of the method: as §1

Lolium perenne (LOLPE) [8] = test: as above; conditions: Lolium perenne, 312 h; Rate 250 g/ha; pre-emergence spray; evaluated after 13 days; read-out: Pre-emergence activity LOLPE (100=total damage to plant; 0=no damage to plant)
Summary of the method: as §1

| Compound | pest or weed control at 250 g/ha (Avena fatua (AVEFA) [1]) | pest or weed control at 250 g/ha [2] | pest or weed control at 250 g/ha [3] | pest or weed control at 250 g/ha (Lolium perenne (LOLPE) [4]) | pest or weed control at 250 g/ha (Avena fatua (AVEFA) [5]) | pest or weed control at 250 g/ha [6] | pest or weed control at 250 g/ha [7] | pest or weed control at 250 g/ha (Lolium perenne (LOLPE) [8]) |
| --- | --- | --- | --- | --- | --- | --- | --- | --- |
| CCc1ccc(Oc2nc3cc(Cl)ccc3s2)cc1C1=C(O)[C@@H]2CC[C@](C)(C1=O)C2(C)C [Example A-322] | 80% | 90% | 100% | 90% | 40% | 60% | 100% | 100% |
| CCc1ccc(Oc2ncc(Cl)cn2)cc1C1=C(O)CC2(CCOCC2)CC1=O [Example A-263] | 90% | 100% | 100% | 60% | 20% | 60% | 100% | 50% |
| CCc1ccc(Oc2ccc(C(F)(F)F)cc2C#N)cc1C1=C(O)C(C)(C)OC(C)(C)C1=O [Example A-100] | 80% | 80% | 90% | 40% | 40% | 40% | 100% | 80% |
| CCc1ccc(Oc2ccc(C#N)cc2C(F)(F)F)cc1C1=C(O)C(C)(C)OC(C)(C)C1=O [Example A-74] | 80% | 90% | 100% | 80% | 90% | 60% | 100% | 100% |
| CCc1ccc(Oc2cc(Cl)cc(Cl)n2)cc1C1=C(O)C(C)(C)OC(C)(C)C1=O [Example A-145] | 20% | 20% | 70% | 20% | 0% | 10% | 20% | 10% |
| CCc1ccc(Oc2cccc(C(F)(F)F)n2)cc1C1=C(O)C(C)(C)OC(C)(C)C1=O [Example A-53] | 0% | 0% | 80% | 30% | 0% | 0% | 20% | 40% |
| CCc1ccc(Oc2ccc(Cl)cc2OC)cc1C1=C(O)C(C)(C)OC(C)(C)C1=O [Example A-181] | 0% | 0% | 30% | 20% | 0% | 0% | 0% | 0% |
| CCc1ccc(Oc2ccc3cc(Cl)ccc3n2)cc1C1=C(O)C(C)(C)OC(C)(C)C1=O [Example A-159] | 80% | 80% | 100% | 100% | 40% | 30% | 90% | 100% |
| CCc1ccc(Oc2ncc(C(F)(F)F)cc2C(F)(F)F)cc1C1=C(O)[C@@H]2CC[C@](C)(C1=O)C2(C)C [Example A-324] | 100% | 100% | 100% | 100% | 90% | 90% | 100% | 100% |
| CCc1ccc(Oc2ccc([N+](=O)[O-])cc2C(F)(F)F)cc1C1=C(O)C(C)(C)OC(C)(C)C1=O [Example A-198] | 60% | 70% | 100% | 70% | 0% | 0% | 60% | 10% |
| CCc1ccc(Oc2ccc(C(F)(F)F)cc2Cl)cc1C1=C(O)[C@@H]2CC[C@](C)(C1=O)C2(C)C [Example A-314] | 70% | 40% | 100% | 70% | 20% | 30% | 100% | 100% |
| CCc1ccc(Oc2ccc(F)cc2Cl)cc1C1=C(O)C(C)(C)OC(C)(C)C1=O [Example A-33] | 50% | 40% | 100% | 50% | 10% | 20% | 90% | 80% |
| CCc1ccc(Oc2ccc(Cl)cc2Cl)cc1C1=C(O)C(C)(C)OC(C)(C)C1=O [Example A-19] | 60% | 60% | 100% | 90% | 70% | 50% | 100% | 80% |
| CCc1ccc(Oc2ccc(C#N)c(Cl)c2)cc1C1=C(O)CC2(CCOCC2)CC1=O [Example A-277] | 80% | 30% | 100% | 100% | 30% | 30% | 100% | 100% |
| CCc1ccc(Oc2ccc([N+](=O)[O-])cc2C#N)cc1C1=C(O)C(C)(C)OC(C)(C)C1=O [Example A-202] | 20% | 10% | 60% | 30% | 0% | 0% | 60% | 10% |
| CCc1ccc(Oc2ccc(C(F)(F)F)cc2[N+](=O)[O-])cc1C1=C(O)C(C)(C)OC(C)(C)C1=O [Example A-203] | 100% | 90% | 90% | 90% | 30% | 20% | 50% | 90% |
| CCc1ccc(Oc2nc(C)c(Cl)c(N)n2)cc1C1=C(O)C(C)(C)OC(C)(C)C1=O [Example A-81] | 50% | 50% | 70% | 30% | 10% | 30% | 90% | 40% |
